Reference: US20100267823A1, “AURONES AS SELECTIVE PDE INHIBITORS AND THEIR USE IN NEUROLOGICAL CONDITIONS AND DISORDERS” (priority 2009, published 2010)

How the values were obtained:
Assay type in all cases: biochemical
[1] = system: PDE1 protein isolated from bovine brain; test: PDE 1 inhibition assay ([3H]cAMP hydrolysis); settings: final concentration of the test compound 10 μM
Procedure: PDE1 protein isolated from bovine brain (MDS Pharma Services: cat. No. 146000) was pre-incubated with the respective test compound dissolved in 1% DMSO aqueous solution for 15 minutes at 25° C. in an incubation buffer (50 mM Tris-HCl, pH 7.5, 5 mM MgCl2, 2 mM CaCl2, 100 U/ml Calmodulin). After pre-incubation phase 1.01 μM [^3H]cAMP+cAMP where added as substrate to the buffer and the mixture was incubated for additional 20 minutes (25° C.).
(§1) At the end of incubation phase [^3H] Adenosine concentrations were quantified. The final concentration of the test compound is 10 μM.

[2] = target: T1, PDE3 protein isolated from human platelets (Homo sapiens, UniProt Q14432); test: PDE 3 inhibition assay ([3H]cAMP hydrolysis); settings: final concentration of the test compound 10 μM; read-out: inhibition compared with the control (PDE 3)
T1 construct: PDE3 protein isolated from human platelets; tissue MDS Pharma Services 152000; host or cells: human platelets
Procedure: PDE3 protein isolated from human platelets (MDS Pharma Services: cat. No. 152000) was pre-incubated with the respective test compound dissolved in 1% DMSO aqueous solution for 15 minutes at 25° C. in an incubation buffer (50 mM Tris-HCl, pH 7.5, […], […]). After pre-incubation phase 1.01 μM [^3H]cAMP+cAMP where added as substrate to the buffer and the mixture was incubated for additional 20 minutes (25° C.). At the end of incubation phase [^3H] Adenosine concentrations were quantified. Stimulating or inhibiting effects equal or larger than 50% in comparison to vehicle (1% DMSO) control were considered as significant effects.
as §1

[3] = system: PDE4 protein from human leukemic monocyte lymphoma cell line (U937); test: PDE 4 inhibition assay ([3H]cAMP hydrolysis); settings: final concentration of the test compound 10 μM
Procedure: PDE4 protein from human leukemic monocyte lymphoma cell line (U937, for example abcam ab3959) (MDS Pharma Services: cat. No. 152000) was pre-incubated with the respective test compound dissolved in 1% DMSO aqueous solution for 15 minutes at 25° C. in an incubation buffer (50 mM Tris-HCl, pH 7.5, 5 mM MgCl2, 2 mM CaCl2, 100 U/ml Calmodulin). After pre-incubation phase 1.01 μM [^3H]cAMP+cAMP where added as substrate to the buffer and the mixture was incubated for additional 20 minutes (25° C.). At the end of incubation phase [^3H] Adenosine concentrations were quantified.
as §1

T1 sequence (Q14432 whole entry): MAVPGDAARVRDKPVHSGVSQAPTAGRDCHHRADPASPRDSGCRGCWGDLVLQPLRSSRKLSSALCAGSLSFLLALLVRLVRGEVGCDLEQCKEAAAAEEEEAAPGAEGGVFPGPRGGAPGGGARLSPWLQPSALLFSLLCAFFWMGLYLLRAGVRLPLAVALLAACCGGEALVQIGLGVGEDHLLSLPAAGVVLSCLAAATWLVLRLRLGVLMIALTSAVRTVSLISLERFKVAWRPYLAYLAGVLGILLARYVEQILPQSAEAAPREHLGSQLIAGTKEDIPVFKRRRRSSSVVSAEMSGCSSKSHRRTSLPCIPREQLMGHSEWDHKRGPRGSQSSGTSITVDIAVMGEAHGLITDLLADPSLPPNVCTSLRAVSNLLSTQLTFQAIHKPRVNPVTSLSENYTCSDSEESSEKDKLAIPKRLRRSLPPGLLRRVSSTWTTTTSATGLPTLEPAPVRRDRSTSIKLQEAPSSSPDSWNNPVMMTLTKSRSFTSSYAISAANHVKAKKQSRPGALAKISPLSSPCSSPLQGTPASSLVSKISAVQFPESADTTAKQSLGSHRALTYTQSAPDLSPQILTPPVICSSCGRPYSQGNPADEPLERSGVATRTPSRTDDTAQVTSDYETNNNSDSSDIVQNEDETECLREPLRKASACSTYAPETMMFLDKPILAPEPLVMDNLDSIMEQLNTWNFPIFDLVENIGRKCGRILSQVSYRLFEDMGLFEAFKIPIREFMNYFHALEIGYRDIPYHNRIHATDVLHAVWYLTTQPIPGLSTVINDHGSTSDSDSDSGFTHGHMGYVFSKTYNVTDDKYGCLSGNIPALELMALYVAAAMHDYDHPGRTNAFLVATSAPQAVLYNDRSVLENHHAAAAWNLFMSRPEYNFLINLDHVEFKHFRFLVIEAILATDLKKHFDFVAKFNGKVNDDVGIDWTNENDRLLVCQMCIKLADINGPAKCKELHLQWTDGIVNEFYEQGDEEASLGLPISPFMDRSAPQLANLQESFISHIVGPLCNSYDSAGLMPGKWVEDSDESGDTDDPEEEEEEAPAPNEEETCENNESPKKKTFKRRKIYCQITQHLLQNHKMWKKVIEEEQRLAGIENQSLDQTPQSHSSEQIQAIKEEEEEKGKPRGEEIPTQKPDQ

Row | Structure (SMILES) | inhibition compared with the control (PDE 1) [1] [%] | inhibition at 10 µM [2] [%] | inhibition compared with the control (PDE 4) [3] [%]
1 | O=C1/C(=C/c2ccc(O)cc2)Oc2cc(O)cc(O)c21 [SM 30(3), 4,4′,6-Trihydroxy-aurone] | 52 | 74 | 41
2 | O=C1/C(=C/c2ccc(O)cc2O)Oc2cc(O)cc(O)c21 [SM 29 (3), 2′,4,4′,6-Tetrahydroxy-aurone] | 52 | 39 | 29
